# Patent publication US20250353873A1, “COMPOUNDS AND METHODS FOR MODULATING APOE EXPRESSION” (Ionis Pharmaceuticals, Inc., priority 2024, published 2025)
# Values joined by “and” are separate entries in the source; they are usually repeats but may differ in a detail not shown here. Identical values can stand only once. Strand notation (5' to 3'): a small letter for the sugar, then the base; units joined by * are phosphorothioate-linked, units joined directly phosphodiester-linked; [ ] holds rarer units or linkages, { } end groups; capitals alone tell only the bases. [ms] = mesyl phosphoramidate linkage; e = 2'-O-(2-methoxyethyl) (MOE); [5mC] = 5-methylcytosine; d = 2'-deoxy (DNA)
# Tests used:
# human APOE RNA [1] = test: Activity in APOE C57BL/6NTac-Apoeem7250 knock-in mice, single ICV bolus, 2 weeks (Example 9); format: in vivo; conditions: single ICV bolus 300 μg
# Protocol: Modified oligonucleotides described above were tested in the APOE knock-in mouse model C57BL/6NTac-Apoeem7250_B-A02(APOE)Tac, a heterozygous APOE mouse model. APOE knock-in mice used in this study express the full-length human APOE gene knocked into the mouse locus. Humanization of APOE gene was done via CRISPR/Cas-9-mediated gene editing, allowing for generation of a model with constitutive expression of human APOE gene. Targeting strategy was based on NCBI transcripts NM_009696.4 (mouse) and NM_000041.4 (human). Mouse genomic sequence from exon 1 to exon 4 (including the 5′ and 3′ UTRs) was replaced with the human counterpart from 141 bp upstream of exon 1 to 28 bp downstream of exon 4. A plasmid allowing expression of Cas9 mRNA, specific gRNA, and the puromycin resistance cassette, and a plasmid containing the homology regions of the mouse APOE gene, and the replaced human region were co-transfected into the Taconic Biosciences C57BL/6N Tac ES cell line. Homologous recombination clones were isolated using positive puromycin selection, and humanized allele was obtained after Cas9-mediated gene editing. C57BL/6NTac-Apoeem7250_B-A02(APOE)Tac mice were used in the in vivo experiments described below.
# APOE C57BL/6NTac-Apoeem7250 knock-in mice were divided into groups of 3 mice each. Each mouse received a single ICV bolus of 300 μg of modified oligonucleotide. A group of 3 mice received a single ICV bolus with PBS as a negative control.
# Two weeks post treatment, mice were sacrificed and RNA was extracted from cortical brain tissue and spinal cord for quantitative real-time RT-PCR analysis of RNA expression of APOE using human primer probe set RTS3073 (described herein above). APOE RNA levels were normalized to mouse Ppia. Mouse Ppia was amplified using primer probe set m_cyclo24 (described herein above). Results are presented as percent human APOE RNA relative to the amount of human APOE RNA in PBS treated animals, (% control).
# human APOE RNA [2] = test: Activity in APOE C57BL/6NTac-Apoeem7250 knock-in mice, single ICV bolus, 8 weeks (Example 11); format: in vivo; conditions: for APOE RNA (% control) Cortex / APOE RNA (% control) Spinal Cord: single ICV bolus 300 μg, 8 weeks post treatment, normalized to mouse Ppia; for reduction of human APOE RNA in the cortex: APOE knock-in mouse model, 8 weeks post administration, assay of Example 11
# How it was run: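 Cortical and spinal cord human APOE RNA quantified by RT-qPCR 8 weeks after a single 300 μg ICV dose in knock-in mice, Ppia-normalized. Values are percent of levels in PBS-treated animals.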
# human APOE RNA [3] = test: Activity in APOE C57BL/6NTac-Apoeem7250 knock-in mice, single ICV bolus, 4 weeks (Example 10); format: in vivo; conditions: single ICV bolus 300 μg
# How it was run: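 Human APOE RNA, quantified by real-time RT-PCR with RTS3073 and normalized to mouse Ppia, was read in cortical brain and spinal cord 4 weeks post dosing. Dosing was a single ICV bolus of 300 μg per knock-in mouse; values are % of PBS-treated animals.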
# human APOE RNA [4] = test: Activity in APOE C57BL/6NTac-Apoeem7250 knock-in mice, single ICV bolus, 16 weeks (Example 12); format: in vivo; conditions: single ICV bolus 300 μg, 16 weeks post treatment, normalized to mouse Ppia
# How it was run: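 A single 300 μg intracerebroventricular dose was given, with PBS-treated mice as reference; cortical and spinal cord tissue was taken 16 weeks later. RT-qPCR quantified human APOE RNA, Ppia-normalized, expressed relative to PBS animals (% control).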
# human APOE RNA [5] = test: Activity in APOE 1549 knock-in mice, single ICV bolus, 2 weeks (Example 7); format: in vivo; conditions: single ICV bolus of 300 μg, two weeks post treatment
# Protocol: Modified oligonucleotides described above were tested in APOE knock-in mice.
# APOE knock-in mice (model 41549) were obtained from Taconic Biosciences. APOE knock-in mice were divided into groups of 2 mice each. Each mouse received a single intracerebroventricular (ICV) bolus of 300 μg of modified oligonucleotide. A group of 4 mice received a single ICV bolus with PBS as a negative control.
# Two weeks post treatment, mice were sacrificed and RNA was extracted from cortical brain tissue and spinal cord for quantitative real-time RT-PCR analysis of RNA expression of APOE using primer probe set RTS3073 (described herein above). APOE RNA levels were normalized to mouse Ppia. Mouse Ppia was amplified using primer probe set m_cyclo24 (forward sequence TCGCCGCTTGCTGCA, designated herein as SEQ ID NO: 16; reverse sequence ATCGGCCGTGATGTCGA, designated herein as SEQ ID NO: 17; probe sequence […], designated herein as SEQ ID NO: 18). Results are presented as percent human APOE RNA relative to the amount of human APOE RNA in PBS treated animals, (% control). Each experiment is identified in separate tables below.
# human APOE RNA [6] = test: Dose-dependent inhibition of human APOE RNA in HepG2 cells, electroporation, 24 hours (Example 6); format: cell-based
# How it was run: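 IC50 derived from APOE RNA levels, given as percent of untreated control after GAPDH normalization (probe sets RTS3073 and RTS104). Oligonucleotides were delivered at multiple concentrations by electroporation into HepG2 cells seeded at 50,000 per well.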
# BJAB cells [7] = conditions: known behaviour in the assay; cited from earlier work
# BJAB cells [8] = test system: BJAB cells
# Protocol: Human APOE modified oligonucleotides were tested for potential immunostimulatory properties in an in vitro human BJAB activation assay.
# Human Burkitt lymphoma B cells, BJAB cells (DSMZ, Cat #ACC 757) were cultured in RPMI1640 medium containing 20% fetal bovine serum at 37° C. and 5% CO2. Cells were maintained at a density of 0.5-0.7×10^6 cells per milliliter. Cells were transferred to 50 mL conical Falcon tubes and centrifuged at 330 RCF for 5 minutes before being resuspended at a concentration of 7.5×10^4 cells per milliliter in RPMI culture medium containing penicillin and streptomycin. 50 μL of the cell suspension was added to a v-bottom tissue culture treated 96-well microplate. 11 μl of 10× concentrated modified oligonucleotides was then added to the plate for a final concentration of 1.6 μM and incubated for 24 hours at 37° C. and 5% CO2.
# After a treatment period of 24 hours, total RNA was isolated from the cells and CCL22 RNA levels were measured by quantitative real-time RT-PCR. CCL22 RNA levels were measured by human primer-probe set RTS49260 (forward sequence [sequence], designated herein as SEQ ID NO: 19; reverse sequence [sequence], designated herein as SEQ ID NO: 20; probe sequence [sequence], designated herein as SEQ ID NO: 21). CCL22 RNA levels were normalized to total RNA content, as measured by GAPDH. Human GAPDH was measured using the human primer-probe set RTS104 (forward sequence [sequence], designated herein as SEQ ID NO: 10; reverse sequence [sequence], designated herein as SEQ ID NO: 11; probe sequence [sequence], designated herein as SEQ ID NO: 12). Levels of CCL22 RNA is presented log fold increase of CCL22, relative to untreated control cells (UTC). The assignment of the immunostimulatory properties of the test compounds is based on the immunostimulatory properties of the internal control compounds in each assay.
# human APOE RNA [9] = test: Activity in APOE C57BL/6NTac-Apoeem7250 knock-in mice, single ICV bolus, 20 weeks (Example 13); format: in vivo; conditions: single ICV bolus 300 μg, 20 weeks post treatment, normalized to mouse Ppia
# How it was run: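 Cortical and spinal cord RNA was assayed by real-time RT-PCR for human APOE, normalized to mouse Ppia and reported as percent of PBS controls. Tissue was taken twenty weeks after one 300 μg intracerebroventricular bolus in APOE knock-in mice, 4 per group.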
# human APOE RNA [10] = test: Dose-dependent inhibition of human APOE RNA in HepG2 cells, electroporation, 50,000 cells per well, RT-PCR normalized to GAPDH (Example 4, Tables 8-10); format: cell-based; conditions: HepG2, electroporation, 16-hour treatment
# How it was run: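 Readout is percent APOE RNA versus untreated controls, measured by RT-PCR (primer probe set RTS3073) and normalized to human GAPDH. Modified oligonucleotides were delivered by electroporation at varying doses into HepG2 cells plated at 50,000 per well.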
# [11] = Cortex, C57BL/6NTac-Apoeem7250 knock-in mice, 4 weeks (Table 21)
# [12] = Cortex, C57BL/6NTac-Apoeem7250 knock-in mice, 4 weeks (Table 22)
# [13] = Spinal Cord, C57BL/6NTac-Apoeem7250 knock-in mice, 4 weeks (Table 21)
# [14] = Spinal Cord, C57BL/6NTac-Apoeem7250 knock-in mice, 4 weeks (Table 22)
Substance,APOE RNA (% control) Cortex (human APOE RNA [1]),APOE RNA (% control) Spinal Cord (human APOE RNA [1]),APOE RNA (% control) Cortex (human APOE RNA [2]),APOE RNA (% control) Spinal Cord (human APOE RNA [2]),APOE RNA (% control) Cortex (human APOE RNA [3]; [11]),APOE RNA (% control) Cortex (human APOE RNA [3]; [12]),APOE RNA (% control) Spinal Cord (human APOE RNA [3]; [13]),APOE RNA (% control) Spinal Cord (human APOE RNA [3]; [14]),APOE RNA (% control) Cortex (human APOE RNA [4]),APOE RNA (% control) Spinal Cord (human APOE RNA [4]),APOE RNA (% control) Cortex (human APOE RNA [5]; Table 17),APOE RNA (% control) Spinal Cord (human APOE RNA [5]; Table 17),IC50 (human APOE RNA [6]),APOE RNA (% UTC) (human APOE RNA [6]; 5 nM),APOE RNA (% UTC) (human APOE RNA [6]; 13 nM),APOE RNA (% UTC) (human APOE RNA [6]; 33 nM),APOE RNA (% UTC) (human APOE RNA [6]; 82 nM),APOE RNA (% UTC) (human APOE RNA [6]; 205 nM),APOE RNA (% UTC) (human APOE RNA [6]; 512 nM),"APOE RNA (% UTC) (human APOE RNA [6]; 1,280 nM)",further results
"1693101: 6-10-4 MOE gapmer CTTGGTGAATCTTTATTAAA, linkages sssssozzzssssszssss (e[5mC]*eT*eT*eG*eG*eTdG[ms]dA[ms]dA[ms]dT*d[5mC]*dT*dT*dT*dA[ms]dT*eT*eA*eA*eA) [compound 1693101]",62 % control,55 % control,58 % control,46 % control,71 % control,57 % control,50 % control,77 % control,71 % control,56 % control,79 % control,57 % control,4030 nM,70 % UTC,91 % UTC,120 % UTC,111 % UTC,95 % UTC,75 % UTC,53 % UTC,"APOE RNA (% control) Cortex (human APOE RNA [3]; cortex, 4 weeks post treatment, normalized to mouse Ppia): 57 % control; APOE RNA (% control) Spinal Cord (human APOE RNA [3]; spinal cord, 4 weeks post treatment, normalized to mouse Ppia): 56 % control; APOE RNA (% UTC) (human APOE RNA [6]; 3,200 nM): 58 % UTC; APOE RNA (% UTC) (human APOE RNA [6]; 8,000 nM): 49 % UTC; APOE RNA (% UTC) (human APOE RNA [6]; 20,000 nM): 20 % UTC"
"1693102: 6-10-4 MOE gapmer CTTGGTGAATCTTTATTAAA, linkages ssssoszzzssssszssss (e[5mC]*eT*eT*eG*eGeT*dG[ms]dA[ms]dA[ms]dT*d[5mC]*dT*dT*dT*dA[ms]dT*eT*eA*eA*eA) [compound 1693102]",51 % control,51 % control,58 % control,43 % control,61 % control,55 % control,48 % control,72 % control,69 % control,41 % control,60 % control,45 % control,1170 nM,89 % UTC,95 % UTC,87 % UTC,92 % UTC,80 % UTC,64 % UTC,48 % UTC,"APOE RNA (% UTC) (human APOE RNA [6]; 3,200 nM): 32 % UTC; APOE RNA (% UTC) (human APOE RNA [6]; 8,000 nM): 22 % UTC; APOE RNA (% UTC) (human APOE RNA [6]; 20,000 nM): 10 % UTC"
"Compound No. 104838: 5-10-5 MOE gapmer, GCTGATTAGAGAGAGGTCCC, internal standard (negative control) (sugars from the 5' end e5 d10 e5, backbone and methylation of C not given here)",,,,,,,,,,,,,,,,,,,,,responder class for CCL22 release in the BJAB assay (internal standard) (BJAB cells [7]): non-responder (non-inflammatory)
"Compound No. 353512: 3-14-3 MOE gapmer, TCCCATTTCAGGAGACCTGG, internal standard (sugars from the 5' end e3 d14 e3, backbone and methylation of C not given here)",,,,,,,,,,,,,,,,,,,,,responder class for CCL22 release in the BJAB assay (internal standard) (BJAB cells [7]): high responder (inflammatory)
"Compound No. 1517853: comparator of WO 2022/066956; TTGGTGAATCTTTATTAAAC, sugar eeeeeddddddddddeeeee, linkages sooosssssssssssooss (MOE gapmer, mixed PS/PO linkages, chemistry not fully specified) [reference compound]",,,67 % control,50 % control,,,,,,,,,,,,,,,,,reduction of human APOE RNA in the cortex (human APOE RNA [2]): 33%; APOE RNA (% control) Cortex (human APOE RNA [5]; Table 16): 53 % control; APOE RNA (% control) Spinal Cord (human APOE RNA [5]; Table 16): 65 % control; inflammatory response in human BJAB cells (BJAB cells [8]): highly inflammatory; APOE RNA (% control) Cortex (human APOE RNA [9]): 99 % control; APOE RNA (% control) Spinal Cord (human APOE RNA [9]): 98 % control
"Compound No. 1517891: comparator of WO 2022/066956; ACTTGGTGAATCTTTATTAA, sugar eeeeeddddddddddeeeee, linkages sooosssssssssssooss (MOE gapmer, mixed PS/PO linkages, chemistry not fully specified) [reference compound]",,,56 % control,29 % control,,,,,,,,,,,,,,,,,"reduction of human APOE RNA in the cortex (human APOE RNA [2]): 44%; APOE RNA (% UTC) (human APOE RNA [10]; 5 nM): 82 % UTC; APOE RNA (% UTC) (human APOE RNA [10]; 13 nM): 75 % UTC; APOE RNA (% UTC) (human APOE RNA [10]; 33 nM): 81 % UTC; APOE RNA (% UTC) (human APOE RNA [10]; 82 nM): 83 % UTC; APOE RNA (% UTC) (human APOE RNA [10]; 205 nM): 65 % UTC; APOE RNA (% UTC) (human APOE RNA [10]; 512 nM): 48 % UTC; APOE RNA (% UTC) (human APOE RNA [10]; 1,280 nM): 36 % UTC; APOE RNA (% UTC) (human APOE RNA [10]; 3,200 nM): 36 % UTC; APOE RNA (% UTC) (human APOE RNA [10]; 8,000 nM): 17 % UTC; IC50 (human APOE RNA [10]): 550 nM; APOE RNA (% control) Cortex (human APOE RNA [5]; Table 16): 49 % control; APOE RNA (% control) Spinal Cord (human APOE RNA [5]; Table 16): 65 % control; inflammatory response in human BJAB cells (BJAB cells [8]): mildly inflammatory; APOE RNA (% control) Cortex (human APOE RNA [9]): 93 % control and 97 % control; APOE RNA (% control) Spinal Cord (human APOE RNA [9]): 92 % control and 71 % control"
